The subject of series [1] is PTZ-induced epileptiform brain discharges in zebrafish larvae. On the set-up: method as in PMID 34768849. To be noted: pimpinellin; cited from earlier work.
For series [2] the following is noted: cited from earlier work.
A further series has as its system zebrafish larvae. In words: Locomotor activity of zebrafish larvae without proconvulsant treatment. Type of series: in vivo, Danio rerio. As to the method:
(§1) 100 µL of embryo medium or 100 µL of a 40 mM PTZ solution was added to obtain a final concentration of 20 mM of PTZ in each well [30]. Larvae were habituated for 5 min in a dark chamber of an automated tracking device (ZebraBox system; Viewpoint, Lyon, France). Then, the locomotor activity without proconvulsant treatment was measured in the dark. The total locomotor activity was quantified using ZebraLab software (Viewpoint, Lyon, France) and was expressed in “actinteg”’ units, which is the sum of all pixel changes detected during the period defined for the experiment. After the evaluation of preincubated larvae movements, PTZ solution was added, and the locomotor behavior was measured for 30 min for each condition. All tracking experiments were performed at least in triplicate.

Series [3] is described as follows: LC-MS/MS quantification of whole-body uptake in immersed zebrafish larvae. As for the experimental part: After immersion larvae were plated in 1% BSA for 15 s and washed thoroughly by shaking to remove all compounds from the larvae surface. […] For quantification, six larvae were pooled before homogenization. Three experiments were carried out in independent days.
These were homogenized with the Ultrasonic Processor UP50H (Hielscher): 1 cycle—60% amplitude. The run consisted of two cycles of 15 s with a rest of 50 s in ice for each sample. […] To 100 µL of homogenate 200 µL of the internal standard (IS) Rolipram (Sigma Aldrich, Buchs, Switzerland) (20 ng/mL) for the positive MS experiment, and VPA d-6 (Sigma Aldrich, Buchs, Switzerland) (50 µg/mL) for the negative MS experiment were added. Samples were vortexed for 10 s and then centrifuged at 12,000 rpm for 10 min at 4 °C. After centrifugation, 150 µL of supernatant was transferred into LC-MS vials already containing 120 µL of MilliQ water. Then, 10 µL was injected into the LC-MS/MS system.
A hybrid triple quadrupole 4000 QTRAP mass spectrometer (AB Sciex Concord, ON, Canada) was used with a Shimadzu UFLC (Shimadzu Corporation, Kyoto, Japan) with a cooled auto-sampler. The sample temperature was maintained at 4 °C in the auto-sampler prior to analysis. The LC column was Synergi 4 µm Fusion-RP 80Å C18 50 × 2 mm, Phenomenex, maintained at 45 °C. The system was operated first in positive and after in negative mode with the same elution mobile phases and gradient method. Mobile phases were as follows: water with 0.1% formic acid (solvent A) and methanol with 0.1% formic acid (solvent B). […] The flow rate was 0.80 mL/min. Peaks were integrated, and the analyst software version 1.6.2 (AB Sciex Concord, ON, Canada) was used for quantification. […] Negative mode: Valproic acid m/z 143→143, (IS: Valproic Acid-d6 149→149).

For series [4] the following is noted: mammals; cited from earlier work.
Series [5] relates to PTZ-induced seizure-like movements in zebrafish larvae. In words: PTZ-induced seizure-like locomotor tracking in zebrafish larvae. Type of series: in vivo, Danio rerio. To be noted: for decrease of actinteg values of PTZ-treated larvae: 1 h pre-immersion; for decrease of actinteg values of PTZ-treated larvae / decrease of locomotor activity of PTZ-treated larvae: 20 mM PTZ, vs vehicle-PTZ group. As to the method: For immersion 6 days post-fertilization (dpf) and for all measurements, 7-dpf larvae were used. The zebrafish experiments described here were approved by the Local Ethics Committee in Lublin (license no: 109/2018).
All compounds were dissolved in dimethyl sulfoxide (DMSO) and diluted in an embryo medium to achieve a final DMSO concentration of 1% w/v. Embryo medium prepared with DMSO to a final concentration of 1% w/v served as vehicle control (VHC). PTZ (Sigma-Aldrich, Poznań, Poland) was dissolved at a concentration of 40 mM in the embryo medium. The control anticonvulsant agent used in this study was VPN (Sigma-Aldrich, Poznań, Poland).
as §1

For series [6] the following is noted: treated humans; cited from earlier work.
In another series the target is T1, LAT1 (Homo sapiens, UniProt Q01650).
T1 construct: expressed in transfected cells; host or cells: MDST8-LAT1 cells
In words: [3H]-L-leucine uptake inhibition in MDST8-LAT1 cells. Type of series: cell-based. To be noted: LAT1 transfected cells. As for the experimental part: [3H]-L-Leucine uptake assay
[3H]-L-Leucine uptake assay was performed as previously described [Yan et al., 2021]. Cells were seeded in 96-well plates with opaque bottom (Corning, 353296) at 40-60% confluency, allowing them to attach for 48 hours in a fully supplemented media. Cells were preincubated with different concentrations of […]
Solution (HBSS) containing 125 mM choline-Cl, 25 mM HEPES, 4.8 mM KCl, 1.2 mM MgSO4, 1.2 mM KH2PO4, 1.3 mM CaCl2 and 5.6 mM D-glucose (pH 7.4) and further incubated with the same solution for 7 minutes at 37 °C. [3H]-l-Leucine uptake was assessed in the same solution containing 10 nM “hot” [3H]-L-Leucine (60 Ci/mmol) (Anawa, 0140A-1) + 30 μM “cold” L-leucine. In case of 5 μM JPH203, the same procedure was followed without PTX preincubation. After 3 minutes, the solution was removed, and the cells were washed with ice-cold Na+-free HBSS to terminate the uptake. Cells were lysed with scintillation solvent MicroScint-20 (Perkin-Elmer Life Sciences, 6013621) and the radioactivity was measured with a scintillation counter (TopCount NXT, Perkin-Elmer Life Sciences).
*Yan R, Li Y, Müller J, Zhang Y, Singer S, Xia L, Zhong X, Gertsch J, Altmann KH, Zhou Q. Mechanism of substrate transport and inhibition of the human LAT1-4F2hc amino acid transporter. Cell Discov.

Series [7] deals with zebrafish larvae whole-body metabolites. Kind of series: Amino acid and neurotransmitter quantification (targeted metabolomics) in zebrafish larvae whole-body. Type of series: in vivo, Danio rerio. To be noted: PTX 20 μM, 18 h immersion. As to the method: For quantification, six larvae were pooled before homogenization. Three experiments were carried out in independent days.
The samples were prepared as described before. To 80 µL of the homogenate 320 µL of MeOH was added to precipitate proteins at a volume dilution […]. After centrifugation at max speed (20,000 rpm) at 4 °C for 10 min, 50 µL were diluted with 200 µL of 1:1 MeOH:1 mM EDTA in Water (Dil 1:4). Samples were centrifuged at max speed at 4 °C for 10 min, and 50 µL were taken into the LC-MS insert vials, 5 µL of the internal standard mix (ethanolamine_d4, dopamine_d4, methionine_d3, serine_d3, lysine_d4 glycine_d5, and acetylcholine_d4) was added to all vials.
The LC column used was Imtakt Intrada amino acid WAA34, 100 × 3 mm; 3 µm, maintained at 35 °C. The system was operated in positive mode. Mobile phases were: 100 mM Ammonium formate in water (mobile phase A) and 95:5:0.3 acetonitrile:water:formic acid (mobile phase B).

Series [8] has as its system PTZ-induced epileptiform brain discharges in zebrafish larvae. Kind of series: Local field potential (LFP) recordings, power spectral density (PSD) analysis, PTZ-induced seizure model. Type of series: in vivo, Danio rerio. To be noted: PTX 20 µM, 18 h immersion, mean PSD over the 1–50 Hz region, 20 mM PTZ. As for the experimental part: Non-invasive local field potential (LFP) was recorded from the optic tectum of zebrafish as described before. Before the recording, the treated larvae were immersed for 15 min in 100 µL of VHC or 20 mM PTZ. After immersion, a larva was immobilized in 2% low melting agarose (Invitogen, Waltham, MA, USA) and the signal electrode (Hilgenberg, Germany) was placed on the surface of the head above the optic tectum. The differential signal between the recording electrode and the reference electrode was amplified 10,000 times by EXT-02F/2 extracellular amplifier (NPI Electronic, Tamm, Germany), band pass filtered at 3–300 Hz and digitized at 2 kHz via a PCI-6251 interface (National Instruments, Austin, Texas, USA) with WinEDR (John Dempster, University of Strathclyde, Glasgow, Scotland). A HumBug noise eliminator (Quest Scientific, Hofheim, Germany) was used to remove 50–60 Hz noise. The recordings and the quantification of the signal from epileptiform brain discharges by Welch’s power spectral density (PSD) analysis were performed as described before.

Here are results for four compounds from publication PMC10252891 (Cells, 2023).

Values after ≈ are worked out from the molar mass of the structure shown. Values joined by “and” are separate entries in the source; they are usually repeats but may differ in a detail not shown here. Equal entries are not always repeated.

T1 sequence (Q01650 whole entry): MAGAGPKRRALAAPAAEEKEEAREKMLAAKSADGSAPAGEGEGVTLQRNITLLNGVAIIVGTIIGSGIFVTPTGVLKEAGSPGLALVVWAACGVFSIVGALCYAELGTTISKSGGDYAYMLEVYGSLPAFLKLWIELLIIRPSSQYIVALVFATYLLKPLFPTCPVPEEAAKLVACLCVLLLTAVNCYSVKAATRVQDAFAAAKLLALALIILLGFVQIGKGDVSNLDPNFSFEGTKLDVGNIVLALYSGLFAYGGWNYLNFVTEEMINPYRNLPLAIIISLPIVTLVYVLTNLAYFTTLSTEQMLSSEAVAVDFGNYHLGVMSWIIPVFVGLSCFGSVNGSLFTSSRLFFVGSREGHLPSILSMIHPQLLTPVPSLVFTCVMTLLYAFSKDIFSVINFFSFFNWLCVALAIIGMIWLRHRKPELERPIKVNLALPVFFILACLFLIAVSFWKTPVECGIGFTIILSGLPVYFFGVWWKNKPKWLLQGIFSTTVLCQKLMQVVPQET
T1 sequence (P08195 102-630 partner): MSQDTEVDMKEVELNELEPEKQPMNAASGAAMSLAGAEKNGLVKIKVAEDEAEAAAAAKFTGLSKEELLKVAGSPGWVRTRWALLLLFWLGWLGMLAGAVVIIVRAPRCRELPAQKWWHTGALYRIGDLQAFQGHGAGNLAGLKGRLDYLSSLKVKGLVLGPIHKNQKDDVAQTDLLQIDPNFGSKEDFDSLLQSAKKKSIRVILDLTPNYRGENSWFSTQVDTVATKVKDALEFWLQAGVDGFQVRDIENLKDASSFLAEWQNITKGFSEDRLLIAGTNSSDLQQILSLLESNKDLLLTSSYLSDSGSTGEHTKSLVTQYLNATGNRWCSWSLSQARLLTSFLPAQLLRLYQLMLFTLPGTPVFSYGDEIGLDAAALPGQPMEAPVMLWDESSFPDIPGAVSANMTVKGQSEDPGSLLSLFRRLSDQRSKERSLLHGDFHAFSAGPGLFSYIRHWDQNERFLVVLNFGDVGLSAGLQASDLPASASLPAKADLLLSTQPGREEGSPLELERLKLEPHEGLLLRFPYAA

In the case of `COc1c(OC)c2occc2c2oc(=O)ccc12` [Pimpinellin, pimpinellin], the “decrease of normalized PSD” value in [1] was 81%.

For the compound `CCCC(CCC)C(=O)O` [VPA, valproic acid], the “solubility in aqueous solutions” value in [2] was 1200 µg/mL (≈ 8.32 mM).

Turning to `CCCC(CCC)C(=O)O` [VPN, sodium valproate], the “locomotor activity without PTZ vs vehicle” value in the series on zebrafish larvae (VPN 5 mM, 18 h) is given as “significant inhibition of the locomotor activity”. The “% Absorbed” value in [3] (VPN/VPA 100 µM, 1 h immersion) was ~ 6%; in [3] (VPN/VPA 100 µM, 1 h immersion, listed as VPN/VPA) it was 6.5%; in [3] (VPN/VPA 500 µM, 1 h immersion), 2.3%; in [3] (VPN/VPA 1 mM, 1 h immersion) it was 3.3%; in series [3] (VPN/VPA 5 mM, 5 min immersion), 0.77%; in [3] (VPN/VPA 5 mM, 5 min immersion, listed as VPN/VPA), 0.8%. The “% Absorbed” value in series [3] (VPN/VPA 5 mM, 30 min immersion) is 1.44%; in series [3] (VPN/VPA 5 mM, 30 min immersion, listed as VPN/VPA) it was 1.4%; in series [3] (VPN/VPA 5 mM, 1 h immersion), 2.52%; in series [3] (VPN/VPA 5 mM, 1 h immersion, listed as VPN/VPA) it was 2.5%; in series [3] (VPN/VPA 5 mM, 18 h immersion (metabolism)), 0.76% (metabolism); in series [3] (VPN/VPA 5 mM, without larvae), 100%. Moreover, the Measured concentration in series [3] (VPN/VPA 5 mM, without larvae) was 734,333 ± 5859 ng/g and 5092 ± 40.6 µM. Besides, the concentration at 1 h in series [3] (zebrafish (Danio rerio) larvae, whole-body larvae homogenate, other: immersion in compound-containing medium, 100 µM, Measured concentration in larvae whole-body, VPN/VPA 100 µM, 1 h immersion) was 941 ng/g and 6.5 µM; in [3] (zebrafish (Danio rerio) larvae, whole-body larvae homogenate, other: immersion in compound-containing medium, 500 µM, Measured concentration in larvae whole-body, VPN/VPA 500 µM, 1 h immersion) it was 1680 ng/g and 11.6 µM; in [3] (zebrafish (Danio rerio) larvae, whole-body larvae homogenate, other: immersion in compound-containing medium, 1 mM, Measured concentration in larvae whole-body, VPN/VPA 1 mM, 1 h immersion) it was 4740 ng/g and 32.9 µM; in series [3] (zebrafish (Danio rerio) larvae, whole-body larvae homogenate, other: immersion in compound-containing medium, 5 mM, Measured concentration in larvae whole-body, VPN/VPA 5 mM, 1 h immersion), 18200 ng/g; in series [3] (zebrafish (Danio rerio) larvae, whole-body larvae homogenate, other: immersion in compound-containing medium, 5 mM, concentration in larvae whole-body, VPN 5 mM, 1 h) it was 18200 ± 400 ng/g; in series [3] (zebrafish (Danio rerio) larvae, whole-body larvae homogenate, other: immersion in compound-containing medium, 10 mM, Measured concentration in larvae whole-body, VPN/VPA 10 mM, 1 h immersion) it was 33900 ng/g and 235 µM. Also, the concentration at 5 min in series [3] (zebrafish (Danio rerio) larvae, whole-body larvae homogenate, other: immersion in compound-containing medium, 5 mM, Measured concentration in larvae whole-body, VPN/VPA 5 mM, 5 min immersion) was 5600 ng/g and 38.8 µM. Besides, the concentration at 30 min in series [3] (zebrafish (Danio rerio) larvae, whole-body larvae homogenate, other: immersion in compound-containing medium, 5 mM, Measured concentration in larvae whole-body, VPN/VPA 5 mM, 30 min immersion) is 10400 ng/g and 71.9 µM. Also, the concentration at 18 h in [3] (zebrafish (Danio rerio) larvae, whole-body larvae homogenate, other: immersion in compound-containing medium, 5 mM, Measured concentration in larvae whole-body, VPN/VPA 5 mM, 18 h immersion) is 5470 ng/g and 38 µM. In [4], the oral bioavailability was ~ 90%. Further, the “efficacy against PTZ-induced seizure-like movements” value in [5] (VPN 5 mM, 1 h) is listed as ~ 80%. Besides, the “activity of PTZ-treated larvae vs vehicle-PTZ group” value in [5] (VPN 5 mM, 18 h immersion, p < 0.001) is reported as “decreased the activity”. In series [6], the “therapeutic plasma concentration, total” value is 300 to 700 µM. Besides, the “therapeutic plasma concentration, unbound” value in series [6] was 30 to 100 µM.

As for pteryxin [PTX], the “average movements without PTZ vs vehicle” value in the series on zebrafish larvae (PTX 5 µM, 1 h) is recorded as “increased the average movements”. The “locomotor activity without PTZ vs vehicle” value in the series on zebrafish larvae (PTX 20 µM, 1 h) is recorded as “decreased locomotor activity”; in the series on zebrafish larvae (PTX 20 µM, 18 h) it was “significant inhibition of the locomotor activity”. Also, the “effect on the LAT1-mediated leucine transport” value on LAT1 was “did not show any effect”. Moreover, the “decrease of actinteg values of PTZ-treated larvae” value in [5] (PTX 10 µM) is 37.6%; in [5] (PTX 15 µM), 57.6%; in [5] (PTX 20 µM), ~ 70% and 70.6%. The “decrease of locomotor activity of PTZ-treated larvae” value is reported as 61.4% in series [5] (PTX 10 µM, 18 h immersion); 73.3% in [5] (PTX 15 µM, 18 h immersion); 78.2% in series [5] (PTX 20 µM, 18 h immersion). Besides, the “decrease of some AA levels vs control” value in series [7] was “up to 60%”. Further, the “decrease in the PSD values” in [8] is 99.8%.
